Earlier results in patent publication US20060188579A1, “Novel process” (priority 2003, published 2006).

Details: particles produced by the method of WO00/38811; lowest value ('down to')

dv(0.5): 1.64 μm
SMILES: Nc1cnc(-c2cc(Cl)cc(Cl)c2Cl)c(N)n1 [2,6-diamino-3-(2,3,5-trichlorophenyl)pyrazine]
